The results in this text go back to ChEMBL document CHEMBL1144623, “Sesterterpene sulfates as isocitrate lyase inhibitors from tropical sponge Hippospongia sp” (Bioorg Med Chem Lett, 2007).

The test system of assay [1] is Pyricularia grisea. The assay is described as follows: Growth inhibition of Magnaporthe grisea Guy 11 in presence of glucose after 6 days. Conditions: Guy 11, 144 h. Type of assay: functional.
Assay [2] in a line: Inhibition of Magnaporthe grisea Guy 11 malate synthase. More on the design: species or system Pyricularia grisea.
The next assay addresses Isocitrate lyase (Magnaporthe oryzae (strain 70-15 / FGSC 8958) (Rice blast fungus)(Pyricularia oryzae), UniProt P0CT06). The assay can be described thus: Inhibition of Magnaporthe grisea Guy 11 isocitrate lyase. Also on record: species or system Pyricularia grisea.
In assay [3] the test system is Pyricularia grisea. The assay can be described thus: Growth inhibition of Magnaporthe grisea Guy 11 in presence of sodium acetate after 6 days. To be noted: Guy 11, 144 h. Type of assay: functional.
For assay [4], the system named is Pyricularia grisea. The assay can be described thus: Reduction of appressorium formation in wild type Magnaporthe grisea Guy 11 after 14 hrs. Type of assay: functional, organism-based.

Where only a bound is given, the exact number is not on record here.

Isocitrate lyase, sequence (P0CT06 whole entry): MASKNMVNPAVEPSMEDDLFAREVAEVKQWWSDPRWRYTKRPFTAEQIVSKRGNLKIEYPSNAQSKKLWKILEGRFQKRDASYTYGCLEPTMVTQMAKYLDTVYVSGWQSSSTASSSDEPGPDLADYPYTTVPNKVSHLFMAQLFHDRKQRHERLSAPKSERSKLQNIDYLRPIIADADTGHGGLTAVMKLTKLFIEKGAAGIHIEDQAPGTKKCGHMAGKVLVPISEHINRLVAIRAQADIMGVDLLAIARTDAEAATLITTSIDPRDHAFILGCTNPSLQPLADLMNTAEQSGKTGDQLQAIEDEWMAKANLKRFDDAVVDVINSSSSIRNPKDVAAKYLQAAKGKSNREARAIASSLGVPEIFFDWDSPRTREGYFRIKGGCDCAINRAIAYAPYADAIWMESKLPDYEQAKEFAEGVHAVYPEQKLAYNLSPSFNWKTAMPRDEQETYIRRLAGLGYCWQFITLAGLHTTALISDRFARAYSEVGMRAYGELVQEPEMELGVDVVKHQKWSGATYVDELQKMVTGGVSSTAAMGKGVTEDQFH

Take `O=C(O)CC[N+](=O)[O-]`: the minimal inhibitory concentration (MIC) (in general, the lowest concentration that inhibits growth of the organism) is more than 3360 µM in the assay with Pyricularia grisea [1] and 2940 µM in the assay on Pyricularia grisea [3]. Besides, the IC50 (as a rule, the concentration that inhibits the measured activity by half) came out at 1570 µM in assay [2] and 92.4 µM at Isocitrate lyase.
In the case of `CC1=CC[C@H]2C(C)(C)CCC[C@]2(C)[C@H]1C[C@@H](O)[C@H](C)CCC/C(C)=C/Cc1cc(O)ccc1O` [HYDROHALISULFATE 1], the minimum inhibitory concentration (MIC) in the assay on Pyricularia grisea [1] was found to be 843 µM; with Pyricularia grisea [3] it was 105 µM. For the same molecule, the IC50 in assay [2] is 274 µM; against Isocitrate lyase, 15 µM. For the same molecule, the Activity entry in the assay with Pyricularia grisea [4] is “Dose-dependent effect”.
`CC1=CC[C@H]2C(C)(C)CCC[C@]2(C)[C@H]1C[C@@H](OS(=O)(=O)O)[C@H](C)CCC/C(C)=C/Cc1cc(O)ccc1O` [HALISULFATE 1]: the figures for the MIC in the assay with Pyricularia grisea [1] and in the assay with Pyricularia grisea [3] were 701 µM and 87.7 µM, respectively. For the same molecule, the IC50 was determined as 227 µM in assay [2] and 12.6 µM at Isocitrate lyase. Further, the Activity entry in the assay with Pyricularia grisea [4] was “Dose-dependent effect”.
With `C=C1CCC[C@@H]2[C@@](C)(CCC(CCCc3ccoc3)COS(=O)(=O)O)[C@H](C)CC[C@]12C` (some centres undefined) [HALISULFATE 5], the minimal inhibitory concentration (MIC) was 853 µM in the assay on Pyricularia grisea [1] and 107 µM with Pyricularia grisea [3]. The IC50 in assay [2] was 1150 µM; against Isocitrate lyase, 67.4 µM. For the same molecule, in the assay with Pyricularia grisea [4], the Activity entry was “Dose-dependent effect”.
